Results taken from patent US20250019341A1, “COMPOUNDS AND METHOD OF USE THEREOF FOR TREATING BACTERIAL DISEASES” (PEKING UNIVERSITY, priority 2021, published 2025).
Like-named read-outs stand apart in the source and are kept apart here.

Assays:
[1] = tested on: P. syringae TTSS secretion (AvrPto, Pst DC3000); conditions: for inhibition of AvrPto secretion in Pst DC3000: supernatant protein, indicated concentrations or dilutions; for inhibition of AvrPto secretion in Pst DC3000 / abundance of AvrPto in total protein (bacteria): immunoblot; for abundance of AvrPto in total protein (bacteria): total / intracellular protein
Pst DC3000 = experiment: Growth curve of Pst DC3000 in KB medium; assay type: cell-based, P. syringae; conditions: 150 μM
[2] = tested on: Pst T1 effector AvrPto secretion; experiment: AvrPto secretion of Pst T1 (immunoblot); assay type: cell-based; conditions: 24 h incubation, versus untreated bacteria
[3] = tested on: Xcc8004 effector AvrAc secretion; experiment: AvrAC protein accumulation and secretion of Xcc8004 (immunoblot); assay type: cell-based; conditions: 24 h incubation, versus untreated bacteria
Method: To determine AvrAC protein accumulation and secretion, Xcc8004 strain expressing HA-tagged AvrAC was cultivated at 28° C. in NYG rich medium (3 g/L yeast extract, 5 g/L peptone, 20 g/L glycerol, pH 7.0). […] Total and supernatants protein were analyzed by immunoblot by indicated antibodies.

[4] = tested on: S. typhimurium effector SopF secretion; experiment: SopF protein accumulation and secretion of Salmonella Typhimurium (immunoblot); assay type: cell-based, Salmonella Typhimurium 14028S; conditions: 24 h incubation, versus untreated bacteria
Method: To determine SopF protein accumulation and secretion, Salmonella Typhimurium 14028S expressing His-tagged SopF was cultivated at 37° C. in LB medium and then subcultured (1:100) in fresh 30 mL LB medium with erucamide or solvent to an OD600 of 0.2. After induction with 0.5 mM IPTG, whole cells and culture supernatants were separated by centrifugation at 5000 RPM for 10 min. The pellet was resuspended by PBS as cytoplasmic protein sample. The supernatants were filtered (0.22 μm pore-size) and then precipitated by adding trichloroacetic acid at a final concentration of 10% v/v, followed by incubation at 4° C. overnight and centrifugation (20000 g, 4° C., 30 min). The pellet was washed twice by cold acetone and analyzed by immunoblot using anti-His antibodies. For control, anti-DnaK antibodies were used.

Pst DC3000 hrcQ mutant = experiment: Bacterial growth assay on N. benthamiana leaves; assay type: in vivo; conditions: 150 μM
P. actinidiae = experiment: Bacterial canker of kiwifruit, leaf inoculation; assay type: in vivo; conditions: 1 mM, sprayed with bacteria on leaves
[5] = tested on: Xanthomonas oryzae pv. oryzae (Xoo) isolate P6; assay type: in vivo, rice; conditions: 1 mM, Xoo P6, leaf clipping, 12 days after inoculation, versus solvent
R. solanacearum = assay type: in vivo, tomato; conditions: 1 mM, soil drenching, versus solvent
[6] = tested on: Pst DC3000 TTSS injectisome (Hrp pilus) assembly; assay type: cell-based, P. syringae; conditions: 0.2 mM, TEM
[7] = tested on: Pst DC3000 injectisome structural proteins (HrpA, HrcQb); experiment: Injectisome structural proteins in cellular and membrane fractions (quantitative proteomics, immunoblot); assay type: cell-based, P. syringae; conditions: 0.2 mM
Method: To isolate the membrane fraction, bacterial cells were harvested, washed with 10 mM Tris-HCl at pH 8.0, centrifuged and the supernatants were carefully discarded. The cell pellets were then resuspended in spheroplast buffer (20 mM Tris pH 8.0, 20% sucrose, 1 mM Na-EDTA), incubated for 10 min and centrifuged. The pellets were then resuspended in ice hypotonic solution (sterile water) and the sample were incubated for 10 min on ice. After centrifugation, the resulting pellets were resuspended in 10 mM Tris-HCl at pH 8.0 and sonicated. After centrifugation, the supernatants were carefully transferred to new tubes and centrifuged again for 40 min. The pellets were washed by sterile water and centrifuged for another 40 min. The pellets were resuspended in water as membrane proteins.

[8] = tested on: Pst DC3000 TTSS gene transcription (avrPto, hrpL)

SMILES: CCCCCCCC/C=C\CCCCCCCCCCCC(=O)NCC [Compound T3SI-16, N-ethyl-13(Z)-Docosenamide]
- inhibition of AvrPto secretion in Pst DC3000 [1]: effectively inhibited

SMILES: CCCCCCCCCCCC(N)=O [Compound T3SI-26]
- inhibition of AvrPto secretion in Pst DC3000 [1]: effectively inhibited

SMILES: C=CCCCCCCCCCCCC(N)=O [Compound T3SI-12, 13-Tetradecenoic acid amide]
- inhibition of AvrPto secretion in Pst DC3000 [1]: effectively inhibited

SMILES: CCCCCCCCCCCCCC(N)=O [Compound T3SI-25]
- inhibition of AvrPto secretion in Pst DC3000 [1]: effectively inhibited

SMILES: CCCCCCCC/C=C\CCCCCCCC(N)=O [Compound T3SI-5]
- abundance of AvrPto in total protein (bacteria) [1]: decrease

SMILES: CCCCCC/C=C\CCCC(N)=O [Compound T3SI-29]
- abundance of AvrPto in total protein (bacteria) [1]: decrease

SMILES: CCCCCCCC/C=C\CCCCCCCCCCCC(=O)NCCO [Compound T3SI-18, N-(2-hydroxyethyl)-13(Z)-Docosenamide]
- inhibition of AvrPto secretion in Pst DC3000 [1]: effectively inhibited

SMILES: CCCCCCCCCCCCCCCCCC(N)=O [Compound T3SI-8]
- inhibition of AvrPto secretion in Pst DC3000 [1]: effectively inhibited

SMILES: CCCCCCCCCCCCCCCCCCCCCC(N)=O [Compound T3SI-7]
- inhibition of AvrPto secretion in Pst DC3000 [1]: effectively inhibited

SMILES: CCCCCCCCCCCCCCCC(=O)NCCO [Compound T3SI-19, N-(2-hydroxyethyl)-Hexadecanamide]
- inhibition of AvrPto secretion in Pst DC3000 [1]: effectively inhibited

SMILES: CCCCCCCC/C=C\CCCCCCCCCCCCNC(N)=O [Compound T3SI-14, N-(13Z)-13-Docosen-1-ylurea]
- inhibition of AvrPto secretion in Pst DC3000 [1]: effectively inhibited

SMILES: CCCCCCCC/C=C\CCCCCCCCCCCC(N)=O (single isomer, unassigned) [Compound T3SI-1, erucamide]
- growth of Pst DC3000 (Pst DC3000; listed as Erucamide): does not affect
- growth of Pst DC3000 (Pst DC3000; listed as erucamide): no effect
- secretion of AvrPto in Pst T1 ([2]; listed as Erucamide): inhibits
- secretion of AvrPto in Pst T1 ([2]; listed as erucamide): significantly lower
- secretion of AvrAc in Xcc8004 ([3]; listed as Erucamide): inhibits
- secretion of AvrAc in Xcc8004 ([3]; listed as erucamide): significantly lower
- secretion of SopF in S. typhimurium ([4]; listed as Erucamide): inhibits
- secretion of SopF in S. typhimurium ([4]; listed as erucamide): significantly lower
- Pst DC3000 hrcQ growth on N. benthamiana (Pst DC3000 hrcQ mutant): inhibited
- bacteria population in treated plants, less than in untreated plants (Pst DC3000 hrcQ mutant; N. benthamiana leaves, 3 days after inoculation): 5 fold
- disease symptoms caused by P. actinidiae on kiwifruit leaves (P. actinidiae; listed as Erucamide): decreased the disease symptoms
- disease symptoms caused by P. actinidiae on kiwifruit leaves (P. actinidiae; listed as erucamide): significantly decrease the disease symptoms
- rice bacterial blight lesion length ([5]; listed as Erucamide): protective effects
- rice bacterial blight lesion length ([5]; listed as erucamide): significantly shorter
- disease symptoms / virulence of R. solanacearum on tomato (R. solanacearum; listed as Erucamide): decreased the virulence
- disease symptoms / virulence of R. solanacearum on tomato (R. solanacearum; listed as erucamide): significantly decreased disease symptoms
- flagella production [6]: slightly blocked
- Hrp pilus (TTSS injectisome) assembly ([6]; listed as Erucamide): inhibited
- Hrp pilus (TTSS injectisome) assembly ([6]; listed as erucamide): significantly inhibited
- bacteria that had Hrp pilus ([6]; erucamide treatment group): 3.3%
- bacteria that had flagella ([6]; erucamide treatment group): 56.7%
- HrpA and HrcQb accumulation in membrane ([7]; immunoblot): inhibited
- levels of HrpA and HrcQb in cellular protein ([7]; immunoblot): did not change
- amount of injectisome structure proteins in total protein ([7]; quantitative proteomics): not altered
- injectisome structure protein accumulation in membrane ([7]; quantitative proteomics): reduced
- concentration at which inhibition of AvrPto secretion was observed ([1]; Pst DC3000): 6 µM
- inhibition of AvrPto secretion in Pst DC3000 [1]: effectively inhibited
- inhibition of AvrPto secretion in Pst DC3000 ([1]; listed as Erucamide): inhibits
- inhibition of AvrPto secretion in Pst DC3000 ([1]; listed as erucamide): gradually decreased with increasing concentration
- inhibition of AvrPto secretion in Pst DC3000 ([1]; listed as fraction 9): high activity
- transcription activity of TTSS genes avrPto and hrpL and house-keeping gene trp ([8]; Pst DC3000 reporter genes, luciferase activity): does not inhibit

SMILES: CCCCCCCC/C=C/CCCCCCCCCCCC(N)=O [Compound T3SI-2, (E)-13-docosenamide]
- inhibition of AvrPto secretion in Pst DC3000 [1]: effectively inhibited

SMILES: CCCCCCCCc1ccccc1CCCCCCCCCCCC(N)=O [Compound T3SI-21, 12-(2-octylphenyl)dodecanamide]
- abundance of AvrPto in total protein (bacteria) [1]: decrease

SMILES: CCCCCCCC/C=C\CCCCCCCCCCCC(=O)NO [Compound T3SI-24, (Z)—N-hydroxydocos-13-enamide]
- abundance of AvrPto in total protein (bacteria) [1]: decrease

SMILES: CCCCCC/C=C\CCCCCCCC(N)=O [Compound T3SI-6]
- abundance of AvrPto in total protein (bacteria) [1]: decrease

SMILES: CCCCCCCCCCCCCCCC(N)=O [Compound T3SI-9]
- inhibition of AvrPto secretion in Pst DC3000 [1]: effectively inhibited

SMILES: C[S+]([O-])CCCCN=C=S (stereo not shown) [SFN, reference compound]
- P. syringae TTSS gene expression [8]: preferentially inhibits

SMILES: CCCCCCCCc1ccc(CCCCCCCCCCCC(N)=O)cc1 [Compound T3SI-22, 12-(4-octylphenyl)dodecanamide]
- abundance of AvrPto in total protein (bacteria) [1]: decrease
